Here are results for one compound from ChEMBL document CHEMBL6153060, “Structure-Based Design of Novel TLR7/8 Agonist Payloads Enabling an Immunomodulatory Conjugate Approach” (ACS Med Chem Lett, 2025).

Series [1] is described as follows: Metabolic stability in human liver microsomes assessed as compound remaining after 30 mins. Type of series: ADME, Microsome. To be noted: read-out: Stability.
Series [2] can be described thus: Metabolic stability in mouse liver microsomes assessed as compound remaining. Type of series: ADME, Microsome.

In the case of `CCC[C@@H](CCO)Nc1nc(N)nc2c3ccccc3n(Cc3cc(CNC[C@@H]4CCOC4)ccc3OC)c12`, in series [1], the remaining at 0.5 h stood at 4%. The Stability in series [2] is 1%.
